{"source": "patent US20130158014A1", "about": "“METHOD FOR TREATING DISEASES ASSOCIATED WITH ALTERATIONS IN CELLULAR INTEGRITY USING RHO KINASE INHIBITOR COMPOUNDS” (priority 2008, published 2013)", "key": {"[1]": {"system": "LPS-challenged mice", "test": "LPS-induced neutrophilia assay", "format": "in vivo, mouse", "settings": "intratracheal 0.5-50 μmol/kg one hour prior to LPS challenge; BALF four hours after; FIG. 12", "procedure": "(§1) Male BALB/c mice, approximately 19 to 21 grams, were ordered from Charles River Laboratories (Raleigh, N.C.). All animals were challenged with aerosolized LPS (10 μg/ml) for 25 minutes on study day 0. LPS aerosol was generated using an Aerogen Aeroneb nebulizer and controller providing a flow of 400 μl/min and a particle size of 2-4 μm MMAD. Rolipram was administered i.p at 20 mg/kg. […] Total cell counts were determined using the Coulter Counter. For differential evaluations, BALF was centrifuged and cytospin slides prepared and stained […]. Manual leukocyte counts were then completed on 200 cells. The final concentration of individual leukocyte cell types per ml of BALF was determined by multiplication of the relative percentage of individual leukocytes with the total amount of cells/ml of BALF fluid. The concentration of IL-1β in the BALF samples was determined using commercially available Bio-plex kits (Bio-Rad)."}, "[2]": {"system": "LPS-challenged mice", "test": "LPS-induced cytokine production assay (IL-1β in BALF)", "format": "in vivo, mouse", "settings": "intratracheal, one hour prior to LPS challenge; BALF four hours after; FIG. 13", "procedure": "as §1"}, "[3]": {"test": "Rat oral pharmacokinetics (plasma)", "format": "in vivo", "settings": "rat oral PK, mean n = 3 rats, 20-30 μmmol/kg", "method": "Plasma (EDTA K2 anticoagulant) was collected from male, cannulated, CD Sprague Dawley rats to determine the pharmacokinetics of formulations containing compound inhibitors of Rho kinase. Each animal was dosed orally with a 4 ml/kg solution or suspension of each test compound in 10 mM acetate buffered saline, pH 4.5 at a final concentration range of 20-30 μmmol/kg. Blood was collected at 0.25, 0.5, 1, 2, 4, 6, 8, and 24 hours. Plasma samples were assayed for the concentration of the test compound using an on-line, solid phase extraction LC/MS/MS analysis system.\nSamples were analyzed on a QSTAR Elite, hybrid quadrupole time-of-flight mass spectrometer (Applied Biosystems, Framingham, Mass.) coupled with a Symbiosis Pharma integrated, on-line SPE-HPLC system (Spark Holland Inc., Plainsboro, N.J.). Analyst QS 2.0 software was used for instrument control, data acquisition and processing. […] Mobile Phase A consisted of 0.1% ammonium hydroxide in water and Mobile Phase B consisted of 0.1% formic acid in acetonitrile. Pharmacokinetic analyses were performed using WinNonlin software version 5.2 (Pharsight Corporation, Mountain View, Calif.).\nAs determined from the plasma concentration versus time curves, the time to peak and peak exposure are represented by the values Tmax and Cmax, respectively. The AUC values (nM*hr) shown were calculated as the areas under the plasma concentration versus time curves from time zero through the time of the last observable value and represent the total exposure of the compound over the course of the study. Half-life values or the amount of time required for the plasma levels of the compound to decline to half the initial value are represented as t1/2."}, "[4]": {"system": "ova-sensitized, ova-challenged mice", "test": "Mouse ovalbumin sensitization model: eosinophils in BALF", "format": "in vivo", "procedure": "(§2) Male BALB/c mice were ordered from Charles River Laboratories (Raleigh, N.C.). The animals were approximately 19 to 21 grams at time of receipt. Upon arrival, the animals were randomized into groups of five males per cage and assigned to a dosing group. Animals were quarantined for 7 days under test conditions. They were observed daily for general health status and ability to adapt to the water bottles. Animals were sensitized on day 0 and 14 of study by an intraperitoneal injection with 20 μg of ovalbumin (ova) and 2.0 mg aluminum hydroxide (alum) which initiates the development of a specific T-helper (Th) cells type 2 resulting in asthmatic animals (denoted as Ova in the figures). One group of animals received an injection of saline to use as control animals (denoted as normal in the figures). All animals were challenged with aerosolized 1% ova once daily for 25 minutes on days 28, 29, and 30 (Zosky, et al. Respiratory Research. 2004; 5:15). Aerosol challenge consists of using an Aerogen Aeroneb nebulizer and controller with a particle size of 4-6 μm mass median aerodynamic diameter (MMAD) with a distribution of 400 μl per minute. This aerosol challenge is necessary to target the Th2-driven allergic inflammation in the lower airways. […]\n(§3) Bronchoalveolar lavage fluid (BALF) was collected by infusing 3.0 ml of saline with 10% fetal calf serum into the lungs via the trachea and then withdrawing the fluid. The total amount of cells/ml of BALF fluid was determined via manual cell count on hemocytometer. The BALF was centrifuged, supernatant removed and analyzed for cytokine concentrations as described below, and cell pellet reconstituted in 500 μL of fluid. […] Following Hema3 stain, relative percentages of individual leukocytes were determined on a 200 cell count for each sample. The final concentration of individual leukocyte cell types per ml of BALF was determined by multiplication of the relative percentage of individual leukocytes with the total amount of cells/ml of BALF fluid."}, "[5]": {"system": "ova-sensitized, ova-challenged mice", "test": "Prevention of airway hyperreactivity (Penh, methacholine) in mouse ovalbumin model", "format": "in vivo", "procedure": "The anti-inflammatory dosing paradigm consists of dosing the animals once a day starting on day 27 and finishing on either day 30 or 31 (1 hr prior to the aerosolized ovalbumin challenges on days 28 to 30) but not on day 32 when hyperreactivity evaluation occurs. […] Exposure to the methacholine doses consisted of a 3 minute period during which a nebulizer was aerosolizing the methacholine and an additional 3 minute period following the cessation of nebulization. […] Enhanced pause (Penh), a unitless index of airway hyperreactivity, is derived from the expiratory side of the respiratory waveform measured via the plethysmograph and is used as an indirect measure of airway resistance and hyperreactivity. […] Following the methacholine dose response, BALF was collected and all animals were anesthetized, bled and euthanized. […] The Penh value at each of the dose levels of methacholine represents the 6-minute average response. Change from baseline (CFB) in Penh was calculated at each methacholine dose and the area under the curve (AUC) for these CFB values was calculated using the trapezoidal rule. This same approach was applied for each mouse across multiple experiments. […] Data from equal experimental conditions across experiments performed on different days were pooled for statistical analysis and data reporting. […] A random intercept for each experiment was assumed to account for possible similarities of the results obtained from a given experiment (i.e., as a “blocking effect”). […] For FIG. 9, linear AUC values from compound treated mice were reported as a percent of linear AUC values from vehicle-treated ovalbumin-sensitized/ovalbumin-challenged (asthmatic) mice."}, "[6]": {"system": "ova-sensitized, ova-challenged mice", "test": "Mouse ovalbumin sensitization model: cytokines (IL-5, Eotaxin, IL-13) in BALF", "format": "in vivo", "settings": "oral on days 27 to 31", "procedure": "as §2, with “5:15).” for “5:15). Aerosol challenge consists of using an Aerogen Aeroneb nebulizer and controller with a particle size of 4-6 μm mass median aerodynamic diameter (MMAD) with a distribution of 400 μl per minute. This aerosol challenge is necessary to target the Th2-driven allergic inflammation in the lower airways.”\nas §3\nThe concentrations of cytokines in the BALF samples were determined using commercially available Bio-plex kits (Bio-Rad) for the detection of mouse IL-5, IL-13, and Eotaxin. The analysis of cytokine levels was measured using the Bio-Plex 200 (Bio-Rad) system according to the manufacturer's instructions."}, "[7]": {"system": "human eosinophils", "test": "Human eosinophil chemotaxis (eotaxin-induced)", "format": "cell-based", "settings": "1 nM eotaxin challenge, one hour; FIG. 11", "excerpt": "Peripheral blood from healthy human volunteers was collected and the PMNs separated via Ficoll-paque density centrifugation followed by hypotonic lysis of the red blood cells. Subsequently, the human eosinophils were isolated from the cell suspension via StemCell Technologies Human Eosinophil Enrichment kit (Cat. No 19256) according to the manufacturer's recommendations. Briefly, unwanted cells were specifically labeled with dextran-coated magnetic nanoparticles using bispecific Tetrameric Antibody Complexes (TAC) directed against cell surface antigens on human blood cells: […] The unwanted cells are then separated from the unlabelled eosinophils using the EasySep® magnetic isolation procedure. […] FIG. 11 demonstates that chemotaxis was induced by eotaxin in human eosinophils."}, "[8]": {"system": "murine eosinophils", "test": "Murine eosinophil chemotaxis (eotaxin-induced)", "format": "cell-based, mouse", "settings": "10 nM eotaxin challenge, one hour; FIG. 10", "procedure": "Bronchoalveolar lavage was collected from ovalbumin sensitized and challenged mice in a volume of 2.5 mL lavage buffer. The lavage buffer was 0.9% saline with 10% fetal bovine serum. The pooled lavages were maintained on ice until use. The murine eosinophils were isolated using MACS cell separation (Miltenyi Biotech) by depletion of B cells and T cells by positive selection following incubation with antibody conjugated magnetic beads specific for CD45-R (B220) and CD90 (Thy 1.2), which bind B cells and T cells, respectively.\nEosinophil chemotaxis was assessed using a modified Boyden Chamber (Neuroprobe, 96-well) with a 5 μm pore membrane. The ability of the tested compounds to block chemotaxis induced by a 10 nM eotaxin challenge (mouse) or 1 nM eotaxin challenge (human) during one hour incubation at 37° C. with 5% CO2 was assessed. Chemotaxis was quantified via microscopy by counting the number of migrated cells in at least 3 view fields per treatment. […] FIG. 11 demonstates that chemotaxis was induced by eotaxin in human eosinophils."}}}
{"molecule": "CS(=O)(=O)Nc1cccc(CN2CCC[C@H](Nc3ccc4[nH]ncc4c3)C2)c1", "note": "[Compound 1.091]", "values": [{"measurement": "pulmonary neutrophilia influx", "setting": "[1]", "value": "significant reduction"}, {"measurement": "IL-1β in BALF", "setting": "[2]", "value": "reduction"}, {"measurement": "AUC (0-last)", "setting": "[3]", "value": "BLQ"}, {"measurement": "Cmax", "setting": "[3]", "value": "BLQ"}, {"measurement": "Tmax", "setting": "[3]", "value": "BLQ"}, {"measurement": "Vz_F", "setting": "[3]", "value": "BLQ"}, {"measurement": "t½", "setting": "[3]", "value": "BLQ"}, {"measurement": "eosinophils in BALF", "setting": "[4]; dosed i.t. once a day, day 27 to day 30, FIG. 5", "value": "reduction of eosinophils"}, {"measurement": "airway hyperreactivity", "setting": "[5]; intratracheal once a day, days 27 to 30, FIG. 9", "value": "prevention of airway hyperreactivity"}]}
{"molecule": "CS(=O)(=O)Nc1cccc(CN2CC[C@@H](Nc3cccc4cnccc34)C2)c1", "note": "[Compound 2.038]", "values": [{"measurement": "concentration of IL-5 in BALF", "setting": "[6]; FIG. 6", "value": "reduced levels"}, {"measurement": "concentration of Eotaxin in BALF", "setting": "[6]; FIG. 7", "value": "reduced levels"}, {"measurement": "concentration of IL-13 in BALF", "setting": "[6]; FIG. 8", "value": "reduced levels"}, {"measurement": "human eosinophil chemotactic response", "setting": "[7]", "value": "inhibited"}, {"measurement": "murine eosinophil chemotactic response", "setting": "[8]", "value": "inhibited"}, {"measurement": "eosinophils per ml of BALF", "setting": "[4]; dosed orally once a day, day 27 to day 31, FIG. 4", "value": "reduced"}, {"measurement": "airway hyperreactivity to methacholine on Day 32", "setting": "[5]; oral 15 μMol/kg once a day, days 27 to 31", "value": "prevention of airway hyperreactivity"}]}
